{
  "source": "patent US6342187B1",
  "about": "“Process and apparatus for dry sterilization of medical devices and materials” (priority 1987, dated 2002)",
  "assay_type_in_all_cases": "cell-based",
  "key": {"[1]": {"system": "Bacillus Subtilis var Niger", "details": "for vials with total kill, of ten Attest vials: Pyrex chamber, cooled cylinder, 0.280-0.300 torr, 38-57° C., moist = H2O 300 ppm", "description": "However, for each of the examples the general technique involved was one in which the material to be sterilized was placed directly in the reaction chamber, or placed within a Tyvek/polyethylene pouch which itself was sealed and placed in a wire basket within the reaction chamber.\nThe materials used for verification of sterilization effectiveness were “Attest” vials obtained from 3M Company, or “Spordex” bacterial test strips obtained from the American Sterilizer Company, each vial or “Spordex” envelope contained a bacterial strip having an original spore population of not less than 1×10^6 Bacillus Subtilis var Niger per strip, but more commonly in the range 2.2-4.0×10^6 spores/strip. The strips contained the permeable plastic vials were not brought into contact with the culture solution contained in any of the vials prior to sterilization. The vials were placed within the Tyvek/polyethylene bags during the plasma sterilization, alongside devices or instruments to be sterilized. The bags were always sealed during the sterilization process.\nFor each example the chamber was first evacuated to an initial low pressure level after the materials (in the bags or pouches) were placed within it. The chamber was thereafter filled with the appropriate gas prior to striking the discharge, and the gas continued to flow through the chamber at a controlled rate to establish a steady state sterilization pressure. The discharge was initiated by the application of RF or microwave power as indicated. The discharge was maintained for a controlled time period at the end of which the power was turned off, the chamber was first evacuated, then backfilled with air through a bacteria retentive filter, and later opened and the samples removed. The temperature within the chamber during the process was maintained at less than 70° C., and more typically around 25° C. to 65° C., as sensed by an iron-constantan, type “J”, thermocouple circuitry and monitored by an analog temperature meter.\nSubsequent to the tests, the spore strips in the “Attest” vials where brought into contact with the self-contained culture solution and incubated for 72 hr, at the end of which period microorganism growth or no growth would be indicated by the resultant color of the culture solution. Alternatively, the spore strips were submitted to an independent testing laboratory which performed a total plate count on the sample strips using a procedure in which 100 milliliters of sterile deionized water were added to each strip in a sterile whirl-pak bag. The bag was then placed in a lab blender for 10 minutes. One 10 milliliter aliquot of sample, a duplicate one milliliter sample, and two consecutive 10^−1 dilutions were plated using Tryptic Soy Agar. The plates were then incubated at 30-35° C. for 72 hours. After incubation, the plates were read and recorded, and the results calculated on a Colony Forming Unit (CFU) basis."}, "[2]": {"system": "biological indicator organism", "experiment": "Example 21 designed experiments, modified AAMI EO test packs, log reduction (organism not specified)", "details": "Example 21, mean over designed experiments; both precursors vaporized at 74° C.; 40 kHz, 5 kW", "protocol": "AAMI EO Test Packs: Modified AAMI Standard EO packs were prepared in which the BI strip was removed from its glassine wrap before processing. Three strips were placed in each syringe, and the syringe was closed at its large end with the standard rubber stopper. A second syringe was prepared containing one MDT Biosign CLBI (results reported as fractional negative). The syringes were placed adjacent to one another and were wrapped in a huckabuck towel per the AAMI EO Test Pack standard. The entire assembly was placed in a Baxter ‘Tower Dual-Peel’ 7.5″×13″ paper-plastic peel pouch, which was subsequently heat sealed.\nStatistical Design of Experiments: This example is based upon both Taguchi and Greco-Latin Square experimental designs in accordance with standard statistical design of experiment techniques [CSS:Statistica, StatSoft, Tulsa, Okla. ]. These experimental designs permitted variation of four parameters over four discrete levels (Greco-Latin Square) or five parameters over four discrete levels (Taguchi L′16 design). The resultant data, reported as log reduction, is analyzed to provide mean values for each of the parameters at each parameter level. Also provided are ANOVA and correlation results (for reduction vs. exposure time), which evaluate the statistical validity of the data. […]"}, "[3]": {"system": "Bstm", "experiment": "Example 22 direct comparison of sterilant precursors, AAMI standard EO test packs", "details": "Example 22: 45 min plasma, 40 kHz, 5 kW, 600 microns; 30 min preconditioning; base pressure 100 microns; Bstm 10^6 spores; peracetic acid vaporized at 60° C., hydrogen peroxide at 74° C.", "protocol": "A direct comparison of 15% peracetic acid and 70% hydrogen peroxide sterilant precursors was made by exposing AAMI standard EO test packs for 45 minutes to plasma induced by 40 kHz excitation frequency with 5 kW RF power. […] No glassine was used on the BI strips (Bstm, 10^6 spore population, MDT lot 601)."}},
  "note": "“And” between values parts separate entries of the source, which are not always exact repeats. Identical values can stand only once. Like-named read-outs stand apart in the source and are kept apart here.",
  "data": [
    {"molecule": "N#N", "note": "[Dry N2, Nitrogen]", "values": [
      {"measurement": "vials with total kill, of ten Attest vials", "setting": "[1]; Example 18: exposure 30 min, 100 scc/min, 0.020 W/cc", "value": 0, "unit": "vials - total kill"},
      {"measurement": "vials with total kill, of ten Attest vials", "setting": "[1]; Example 18: exposure 45 min, 100 scc/min, 0.020 W/cc", "value": 0, "unit": "vials - total kill"},
      {"measurement": "vials with total kill, of ten Attest vials", "setting": "[1]; Example 18: exposure 60 min, 100 scc/min, 0.020 W/cc", "value": 1, "unit": "vial - total kill vials"},
      {"measurement": "vials with total kill, of ten Attest vials", "setting": "[1]; Example 18: exposure 75 min, 100 scc/min, 0.020 W/cc", "value": 2, "unit": "vials - total kill"}
    ]},
    {"molecule": "OO", "note": "[70% hydrogen peroxide, hydrogen peroxide]", "values": [
      {"measurement": "mean log reduction", "setting": "[2]", "value": 3.1, "unit": "log reduction"},
      {"measurement": "mean log reduction", "setting": "[3]", "value": 5.43}
    ]},
    {"molecule": "CC(=O)OO", "note": "[15% peracetic acid, peracetic acid]", "values": [
      {"measurement": "mean log reduction", "setting": "[2]", "value": 2.8, "unit": "log reduction"},
      {"measurement": "mean log reduction", "setting": "[3]", "value": 5.57}
    ]},
    {"molecule": "O=O", "note": "[O2, Oxygen]", "values": [
      {"measurement": "Percent Kill", "setting": "[1]", "value": 99.9999, "unit": "%"},
      {"measurement": "Percent Kill (%)", "setting": "[1]", "value": "77.6923% and 99.9999%"},
      {"measurement": "Resultant Microbial Count (CFUs)", "setting": "[1]", "value": "5.8 × 10^5 CFUs and <10 CFUs"},
      {"measurement": "Resultant microbial count", "setting": "[1]", "value": "< 10", "unit": "CFU"},
      {"measurement": "Percent Kill", "setting": "[1]; Example 2: metal chamber, cooled perforated cylinder (FIG. 4), 20 scc/min, 0.30 torr, 0.050 W/cm^3, 60 min, 32° C.", "value": "Total kill"},
      {"measurement": "Percent Kill", "setting": "[1]; Example 4: metal chamber, two uncooled perforated cylinders (FIG. 6), 20 scc/min, 0.30 torr, 0.050 W/cm^3, 60 min, 76° C.", "value": "Total kill"},
      {"measurement": "Percent Kill", "setting": "[1]; Example 8: Pyrex chamber, cooled perforated cylinder (FIG. 1), 25 scc/min, 0.30 torr, 0.015 W/cm^3, 30 min, 26° C.", "value": "Total kill"},
      {"measurement": "Percent Kill", "setting": "[1]; Example 9: Pyrex chamber, uncooled perforated cylinder (FIG. 1), 25 scc/min, 0.30 torr, 0.015 W/cm^3, 30 min, 83° C.", "value": "Total kill"},
      {"measurement": "Percent Kill", "setting": "[1]; Example 12: Pyrex chamber, two uncooled perforated cylinders, 70 scc/min, 0.275 torr, 0.016 W/cc, 45 min, 92° C., AAMI standard sterilization test pack", "value": "Total Kill"},
      {"measurement": "Percent Kill", "setting": "[1]; Example 13: Pyrex chamber, two cooled perforated cylinders, conditions as Example 12, 54° C., AAMI test pack", "value": "Total Kill"},
      {"measurement": "Percent Kill", "setting": "[1]; Example 14: Pyrex chamber, uncooled perforated cylinder, 70 scc/min, 0.275 torr, 0.014 W/cc, 30 min, 85° C.", "value": "Total Kill"},
      {"measurement": "Percent Kill", "setting": "[1]; Example 15: Pyrex chamber, cooled perforated cylinder (FIG. 1), conditions as Example 14, 47° C.", "value": "Total Kill"},
      {"measurement": "Percent Kill", "setting": "[1]; Example 16: Pyrex chamber, cooled perforated cylinder (FIG. 1), conditions as Example 14, exposure 2¼ hr, 51° C.", "value": "Total Kill"},
      {"measurement": "Percent Kill", "setting": "[1]; Example 19: spore strip in middle of 24-inch PVC or silicone rubber tubing, in sealed pouch, 100 scc/min, 0.280 torr, 0.020 W/cc, 70-105 min, 50° C.", "value": "Total Kill"}
    ]}
  ]
}
